Experimental data from paper PMC5218480 (PLoS ONE, 2017).

System: MV-4-11 cells
Experiment: Gene expression microarray analysis (Affymetrix PrimeView) and GSEA
Format: cell-based, human
Design: RFU PODN (11730768_x_at) / Fold change /veh PODN (11730768_x_at) / RFU LINC00158 (11744669_a_at) / Fold change /veh LINC00158 (11744669_a_at) / RFU DUSP10 (11751237_a_at) / Fold change /veh DUSP10 (11751237_a_at) / RFU ID3 (11757404_x_at) / Fold change /veh ID3 (11757404_x_at) / RFU PLEKHG5 (11737974_s_at) / Fold change /veh PLEKHG5 (11737974_s_at) / RFU LRRC4B (11730491_at) / Fold change /veh LRRC4B (11730491_at) / RFU GIMAP4 (11747438_a_at) / Fold change /veh GIMAP4 (11747438_a_at) / RFU KRT8 (11758183_x_at) / Fold change /veh KRT8 (11758183_x_at) / RFU CNN1 (11734310_a_at) / Fold change /veh CNN1 (11734310_a_at) / RFU VPS37D (11726825_at) / Fold change /veh VPS37D (11726825_at) / RFU C10orf10 (11716522_x_at) / Fold change /veh C10orf10 (11716522_x_at) / RFU KIR2DL2 /// KIR2DL4 /// KIR2DL5A /// KIR2DL5B /// KIR2DS1 /// KIR2DS2 /// KIR2DS3 /// KIR2DS4 /// KIR3DL3 /// KIR3DL3 /// KIR3DS1 (11738374_at) / Fold change /veh KIR2DL2 /// KIR2DL4 /// KIR2DL5A /// KIR2DL5B /// KIR2DS1 /// KIR2DS2 /// KIR2DS3 /// KIR2DS4 /// KIR3DL3 /// KIR3DL3 /// KIR3DS1 (11738374_at) / RFU C1QL1 (11718748_at) / Fold change /veh C1QL1 (11718748_at) / RFU TMPRSS4 (11747572_a_at) / Fold change /veh TMPRSS4 (11747572_a_at) / RFU HAMP (11756126_x_at) / Fold change /veh HAMP (11756126_x_at) / RFU RNFT2 (11725882_a_at) / Fold change /veh RNFT2 (11725882_a_at) / RFU NR4A2 (11747474_a_at) / Fold change /veh NR4A2 (11747474_a_at) / RFU ABCC12 (11746883_a_at) / Fold change /veh ABCC12 (11746883_a_at) / RFU TMEM136 (11760407_x_at) / Fold change /veh TMEM136 (11760407_x_at) / RFU CLDN22 /// WWC2 (11732394_at) / Fold change /veh CLDN22 /// WWC2 (11732394_at) / RFU HLA-DPB1 (11760878_x_at) / Fold change /veh HLA-DPB1 (11760878_x_at) / RFU SPINT1 (11716480_a_at) / Fold change /veh SPINT1 (11716480_a_at) / RFU GAP43 (11754022_s_at) / Fold change /veh GAP43 (11754022_s_at) / RFU A4GNT (11735810_at) / Fold change /veh A4GNT (11735810_at) / RFU PRB3 (11715151_x_at) / Fold change /veh PRB3 (11715151_x_at) / RFU TUBB4B (11761932_at) / Fold change /veh TUBB4B (11761932_at) / RFU CAPN14 (11732068_a_at) / Fold change /veh CAPN14 (11732068_a_at) / RFU TMCC2 (11721928_a_at) / Fold change /veh TMCC2 (11721928_a_at) / RFU IRGQ (11745062_a_at) / Fold change /veh IRGQ (11745062_a_at) / RFU FAM174B (11720279_a_at) / Fold change /veh FAM174B (11720279_a_at) / RFU TMPRSS4 (11748680_a_at) / Fold change /veh TMPRSS4 (11748680_a_at) / RFU FAM212B (11763350_a_at) / Fold change /veh FAM212B (11763350_a_at) / RFU PLEKHG5 (11743358_a_at) / Fold change /veh PLEKHG5 (11743358_a_at) / RFU ZSCAN30 (11745921_a_at) / Fold change /veh ZSCAN30 (11745921_a_at) / RFU CMKLR1 (11741424_a_at) / Fold change /veh CMKLR1 (11741424_a_at) / RFU LOC101060620 /// MAPK8IP1 (11723275_at) / Fold change /veh LOC101060620 /// MAPK8IP1 (11723275_at) / RFU SPTSSB (11747773_x_at) / Fold change /veh SPTSSB (11747773_x_at) / RFU PRSS12 (11739890_at) / Fold change /veh PRSS12 (11739890_at) / RFU BIN1 (11741810_x_at) / Fold change /veh BIN1 (11741810_x_at) / RFU WNT11 (11732464_a_at) / Fold change /veh WNT11 (11732464_a_at) / RFU C10orf10 (11716521_a_at) / Fold change /veh C10orf10 (11716521_a_at) / RFU C5orf56 (11738089_at) / Fold change /veh C5orf56 (11738089_at) / RFU CYB561 (11721691_x_at) / Fold change /veh CYB561 (11721691_x_at) / RFU ANKRD19P (11752326_a_at) / Fold change /veh ANKRD19P (11752326_a_at) / RFU OR2T12 /// OR2T33 /// OR2T8 (11738714_s_at) / Fold change /veh OR2T12 /// OR2T33 /// OR2T8 (11738714_s_at) / RFU VCAN (11748164_a_at) / Fold change /veh VCAN (11748164_a_at) / RFU JSRP1 (11732532_at) / Fold change /veh JSRP1 (11732532_at) / RFU KRTAP10-11 (11738290_x_at) / Fold change /veh KRTAP10-11 (11738290_x_at) / RFU MYO3A (11730013_a_at) / Fold change /veh MYO3A (11730013_a_at) / RFU EBF3 (11725865_a_at) / Fold change /veh EBF3 (11725865_a_at) / RFU CAMK2N1 (11719241_x_at) / Fold change /veh CAMK2N1 (11719241_x_at) / RFU C5orf56 (11738088_a_at) / Fold change /veh C5orf56 (11738088_a_at) / RFU OLFML3 (11715873_a_at) / Fold change /veh OLFML3 (11715873_a_at) / RFU LOC100653217 /// NTM (11731650_a_at) / Fold change /veh LOC100653217 /// NTM (11731650_a_at) / RFU MAPK11 (11762145_a_at) / Fold change /veh MAPK11 (11762145_a_at) / RFU FIZ1 (11724087_x_at) / Fold change /veh FIZ1 (11724087_x_at) / RFU OASL (11726364_x_at) / Fold change /veh OASL (11726364_x_at) / RFU SOX15 (11748057_x_at) / Fold change /veh SOX15 (11748057_x_at) / RFU CD79A (11719716_a_at) / Fold change /veh CD79A (11719716_a_at) / RFU HIST1H1D (11736915_at) / Fold change /veh HIST1H1D (11736915_at) / RFU CASKIN2 (11723855_a_at) / Fold change /veh CASKIN2 (11723855_a_at) / RFU LOC730098 (11760151_x_at) / Fold change /veh LOC730098 (11760151_x_at) / RFU OR4N2 (11742367_at) / Fold change /veh OR4N2 (11742367_at) / RFU PRRT2 (11749266_a_at) / Fold change /veh PRRT2 (11749266_a_at) / RFU SNX32 (11753110_a_at) / Fold change /veh SNX32 (11753110_a_at) / RFU CDHR5 (11726645_a_at) / Fold change /veh CDHR5 (11726645_a_at) / RFU RCAN1 (11760418_a_at) / Fold change /veh RCAN1 (11760418_a_at) / RFU FAM167A (11723789_a_at) / Fold change /veh FAM167A (11723789_a_at) / RFU FAM26E (11764081_at) / Fold change /veh FAM26E (11764081_at) / RFU ISYNA1 (11749810_s_at) / Fold change /veh ISYNA1 (11749810_s_at) / RFU ACY1 (11761880_at) / Fold change /veh ACY1 (11761880_at) / RFU 11764098_at / Fold change /veh 11764098_at / RFU SAMD14 (11745864_x_at) / Fold change /veh SAMD14 (11745864_x_at) / RFU NPB (11741838_a_at) / Fold change /veh NPB (11741838_a_at) / RFU TMPRSS6 (11731388_a_at) / Fold change /veh TMPRSS6 (11731388_a_at) / RFU KRTAP10-2 (11738614_at) / Fold change /veh KRTAP10-2 (11738614_at) / RFU ARHGAP8 /// PRR5-ARHGAP8 (11727945_x_at) / Fold change /veh ARHGAP8 /// PRR5-ARHGAP8 (11727945_x_at) / RFU KRTAP5-7 /// NADSYN1 (11734609_at) / Fold change /veh KRTAP5-7 /// NADSYN1 (11734609_at) / RFU RASL12 (11751679_a_at) / Fold change /veh RASL12 (11751679_a_at) / RFU CDKN2B (11736163_a_at) / Fold change /veh CDKN2B (11736163_a_at) / RFU PRF1 (11729649_at) / Fold change /veh PRF1 (11729649_at) / RFU, ZNF638 /// ZNF638-IT1 / Fold change vs veh, ZNF638 /// ZNF638-IT1 / RFU, PANK3 / Fold change vs veh, PANK3 / RFU, SH3YL1 / Fold change vs veh, SH3YL1 / RFU, ZEB2 / Fold change vs veh, ZEB2 / RFU, NRIP1 / Fold change vs veh, NRIP1 / RFU, PTTG1IP / Fold change vs veh, PTTG1IP / RFU, CAPN2 / Fold change vs veh, CAPN2 / RFU, MED14 / Fold change vs veh, MED14 / RFU, SNORA58 / Fold change vs veh, SNORA58 / RFU, C1orf63 / Fold change vs veh, C1orf63 / RFU, LRRFIP1 / Fold change vs veh, LRRFIP1 / RFU, NDUFAF7 / Fold change vs veh, NDUFAF7 / RFU, SLC12A2 / Fold change vs veh, SLC12A2 / RFU, IBTK / Fold change vs veh, IBTK / RFU, ESF1 / Fold change vs veh, ESF1 / Fold change vs veh, TMEM50B / RFU, TAOK1 / Fold change vs veh, TAOK1 / RFU, ACBD3 / Fold change vs veh, ACBD3 / RFU, TMA16 / Fold change vs veh, TMA16 / RFU, RWDD3 / Fold change vs veh, RWDD3 / RFU, BCAT1 / Fold change vs veh, BCAT1 / RFU, EDEM3 / Fold change vs veh, EDEM3 / RFU, TMEM33 / Fold change vs veh, TMEM33 / RFU, WDR75 / Fold change vs veh, WDR75 / RFU, AHCTF1 / Fold change vs veh, AHCTF1 / RFU, TFRC / Fold change vs veh, TFRC / RFU, ZDHHC17 / Fold change vs veh, ZDHHC17 / RFU, NOM1 / Fold change vs veh, NOM1 / RFU, ARL8B / Fold change vs veh, ARL8B / RFU, ZBTB11 / Fold change vs veh, ZBTB11 / RFU, TAMM41 / Fold change vs veh, TAMM41 / RFU, KIAA1704 /// LOC100996395 / Fold change vs veh, KIAA1704 /// LOC100996395 / RFU, ING1 / Fold change vs veh, ING1 / RFU, TRMT61B / Fold change vs veh, TRMT61B / RFU, FUBP3 / Fold change vs veh, FUBP3 / RFU, TP53 / Fold change vs veh, TP53 / RFU, TNKS2 / Fold change vs veh, TNKS2 / RFU, ZFP14 / Fold change vs veh, ZFP14 / RFU, ACTR2 / Fold change vs veh, ACTR2 / RFU, PPP3R1 / Fold change vs veh, PPP3R1 / RFU, PIK3R1 / Fold change vs veh, PIK3R1 / RFU, HNRNPA1 / Fold change vs veh, HNRNPA1 / RFU, RNF170 / Fold change vs veh, RNF170 / RFU, ZNF28 / Fold change vs veh, ZNF28 / RFU, RNGTT / Fold change vs veh, RNGTT / RFU, OGT / Fold change vs veh, OGT / RFU, BRD1 / Fold change vs veh, BRD1 / RFU, MARS / Fold change vs veh, MARS / RFU, ZNF655 / Fold change vs veh, ZNF655 / RFU, FAHD1 / Fold change vs veh, FAHD1 / RFU, BDP1 / Fold change vs veh, BDP1 / RFU, LRRCC1 / Fold change vs veh, LRRCC1 / RFU, ARID1A / Fold change vs veh, ARID1A / RFU, ZNF146 / Fold change vs veh, ZNF146 / RFU, ZNF330 / Fold change vs veh, ZNF330 / RFU, GPN3 / Fold change vs veh, GPN3 / RFU, C9orf123 / Fold change vs veh, C9orf123 / RFU, N4BP2L2 / Fold change vs veh, N4BP2L2 / RFU, ARFIP1 / Fold change vs veh, ARFIP1 / RFU, FAM179B / Fold change vs veh, FAM179B / RFU, BCL10 / Fold change vs veh, BCL10 / RFU, UHRF1BP1L / Fold change vs veh, UHRF1BP1L / RFU, BET1 / Fold change vs veh, BET1 / RFU, CNOT2 / Fold change vs veh, CNOT2 / RFU, ZNF268 / Fold change vs veh, ZNF268 / Fold change vs veh, ZNF507 / RFU, DGCR2 / Fold change vs veh, DGCR2 / RFU, WDSUB1 / Fold change vs veh, WDSUB1 / Fold change vs veh, HSP90B1 /// MIR3652 / RFU, ADSS / Fold change vs veh, ADSS / RFU, GK / Fold change vs veh, GK / RFU, ZNF148 / Fold change vs veh, ZNF148 / RFU, TAF9 / Fold change vs veh, TAF9 / RFU, SLC1A5 / Fold change vs veh, SLC1A5 / RFU, SLMO2 / Fold change vs veh, SLMO2 / RFU, ABCC4 / Fold change vs veh, ABCC4 / RFU, LOC101060439 /// RAP1B / Fold change vs veh, LOC101060439 /// RAP1B / RFU, RFX7 / Fold change vs veh, RFX7 / RFU, GTPBP10 / Fold change vs veh, GTPBP10 / RFU, CNEP1R1 / Fold change vs veh, CNEP1R1 / RFU, BIVM-ERCC5 /// ERCC5 / Fold change vs veh, BIVM-ERCC5 /// ERCC5 / RFU, ILF3 / Fold change vs veh, ILF3 / RFU 11762660_at / Fold change /veh 11762660_at / RFU VCAN (11757783_s_at) / Fold change /veh VCAN (11757783_s_at) / RFU DDX43 (11728927_at) / Fold change /veh DDX43 (11728927_at) / RFU KRT8 (11758188_x_at) / Fold change /veh KRT8 (11758188_x_at) / RFU NKD1 (11759106_at) / Fold change /veh NKD1 (11759106_at) / RFU SRD5A1 (11742802_a_at) / Fold change /veh SRD5A1 (11742802_a_at) / RFU TPSAB1 /// TPSB2 (11721975_s_at) / Fold change /veh TPSAB1 /// TPSB2 (11721975_s_at) / RFU GSTM3 (11746129_a_at) / Fold change /veh GSTM3 (11746129_a_at) / RFU IL23R (11737362_x_at) / Fold change /veh IL23R (11737362_x_at) / RFU TMEM51 (11727254_a_at) / Fold change /veh TMEM51 (11727254_a_at) / RFU PIWIL2 (11732686_x_at) / Fold change /veh PIWIL2 (11732686_x_at) / RFU ORM1 (11744905_x_at) / Fold change /veh ORM1 (11744905_x_at) / RFU CCDC152 (11743942_at) / Fold change /veh CCDC152 (11743942_at) / RFU ECM1 (11717891_a_at) / Fold change /veh ECM1 (11717891_a_at) / RFU IL23R (11748794_a_at) / Fold change /veh IL23R (11748794_a_at) / RFU TNFAIP8L3 (11732012_x_at) / Fold change /veh TNFAIP8L3 (11732012_x_at) / RFU MBOAT4 (11741988_at) / Fold change /veh MBOAT4 (11741988_at) / RFU 11764193_at / Fold change /veh 11764193_at / RFU TMEM53 (11763286_at) / Fold change /veh TMEM53 (11763286_at) / RFU MAGEB2 (11727129_at) / Fold change /veh MAGEB2 (11727129_at) / RFU TMEM200A (11744735_a_at) / Fold change /veh TMEM200A (11744735_a_at) / RFU CCDC152 (11751479_a_at) / Fold change /veh CCDC152 (11751479_a_at) / RFU FAM211A (11726209_a_at) / Fold change /veh FAM211A (11726209_a_at) / RFU RGS16 (11746705_a_at) / Fold change /veh RGS16 (11746705_a_at) / RFU VCAN (11755009_s_at) / Fold change /veh VCAN (11755009_s_at) / RFU RHOB (11743442_s_at) / Fold change /veh RHOB (11743442_s_at) / RFU RGS16 (11720943_a_at) / Fold change /veh RGS16 (11720943_a_at) / RFU RGS16 (11720944_at) / Fold change /veh RGS16 (11720944_at) / RFU, VPS4B / Fold change vs veh, VPS4B / RFU, CREB1 / Fold change vs veh, CREB1 / RFU, DNAJC13 / Fold change vs veh, DNAJC13 / RFU, GNAQ / Fold change vs veh, GNAQ / RFU, CDK5R1 / Fold change vs veh, CDK5R1 / RFU, ZRANB3 / Fold change vs veh, ZRANB3 / RFU, CUL4A / Fold change vs veh, CUL4A / RFU, CCNY / Fold change vs veh, CCNY / RFU, UFL1 / Fold change vs veh, UFL1 / RFU, COG3 / Fold change vs veh, COG3 / RFU, DIAPH2 / Fold change vs veh, DIAPH2 / RFU, SKA2 / Fold change vs veh, SKA2 / RFU, AFF3 / Fold change vs veh, AFF3 / RFU, LMF1 / Fold change vs veh, LMF1 / RFU, IPO11 / Fold change vs veh, IPO11 / RFU, DFFB / Fold change vs veh, DFFB / RFU, FOXP1 / Fold change vs veh, FOXP1 / RFU, CARD8 / Fold change vs veh, CARD8 / RFU, STRN3 / Fold change vs veh, STRN3 / RFU, ADK / Fold change vs veh, ADK / RFU, RASSF2 / Fold change vs veh, RASSF2 / RFU, WIPF1 / Fold change vs veh, WIPF1 / RFU, LARP1B / Fold change vs veh, LARP1B / RFU, RASA1 / Fold change vs veh, RASA1 / RFU, RB1 / Fold change vs veh, RB1 / RFU, PPFIA1 / Fold change vs veh, PPFIA1 / RFU, MAT2A / Fold change vs veh, MAT2A / RFU, CCT5 / Fold change vs veh, CCT5 / RFU, WDR92 / Fold change vs veh, WDR92 / RFU, CUX1 / Fold change vs veh, CUX1 / RFU, TTC7A / Fold change vs veh, TTC7A / RFU, TMEM135 / Fold change vs veh, TMEM135 / RFU, DEPTOR / Fold change vs veh, DEPTOR / RFU, CPM / Fold change vs veh, CPM / RFU, DNAJB6 / Fold change vs veh, DNAJB6 / RFU, CACNA2D3 / Fold change vs veh, CACNA2D3 / RFU, DTX4 / Fold change vs veh, DTX4 / RFU, TFCP2 / Fold change vs veh, TFCP2 / RFU, GMCL1 /// GMCL1P1 / Fold change vs veh, GMCL1 /// GMCL1P1 / RFU, AEBP2 / Fold change vs veh, AEBP2 / RFU, SNHG1 /// SNORD22 /// SNORD25 /// SNORD26 /// SNORD27 /// SNORD28 /// SNORD29 /// SNORD31 / Fold change vs veh, SNHG1 /// SNORD22 /// SNORD25 /// SNORD26 /// SNORD27 /// SNORD28 /// SNORD29 /// SNORD31 / Fold change (Aza/veh), C12orf56 (ProbeSet 11735607_a_at) / Fold change (ACY-1035/veh), C12orf56 (ProbeSet 11735607_a_at) / Fold change (Aza/veh), FGFR1OP (ProbeSet 11751329_s_at) / Fold change (ACY-1035/veh), FGFR1OP (ProbeSet 11751329_s_at) / Fold change (Aza/veh), VPS36 (ProbeSet 11739960_a_at) / Fold change (ACY-1035/veh), VPS36 (ProbeSet 11739960_a_at) / RFU SYPL1 (11715823_x_at) / Fold change /veh SYPL1 (11715823_x_at) / RFU IGFBP7 (11715501_s_at) / Fold change /veh IGFBP7 (11715501_s_at) / RFU REEP3 (11722064_at) / Fold change /veh REEP3 (11722064_at) / RFU IGLL1 (11728026_x_at) / Fold change /veh IGLL1 (11728026_x_at): dose or concentration left out as unconfirmed
Details: ProbeSet 11747888_a_at; LIST D

Nc1ccc(-c2cccs2)cc1NC(=O)c1ccc2c(c1)cc(C1CC1)n2CCN1CCOCC1 [ACY-1035]
Fold change vs veh, SH3YL1: 0.93
